Measurements reported in ChEMBL document CHEMBL4382291, “Aminopyrazole Carboxamide Bruton's Tyrosine Kinase Inhibitors. Irreversible to Reversible Covalent Reactive Group Tuning” (ACS Med Chem Lett, 2019).

Key:
[1] = target: Tyrosine-protein kinase BTK (Homo sapiens, UniProt Q06187, C481S); experiment: Inhibition of full-length human C-terminal His6-tagged BTK C481S mutant expressed in Sf9 insect cells using FAM-Srctide peptide as substrate preincubated for 1 hr followed by substrate addition and measured after 1 hr by TR-FRET Lanthascreen assay
[2] = target: T1, Tyrosine-protein kinase BTK (Homo sapiens, UniProt Q06187); experiment: Inhibition of BTK in goat anti-human IgM F(ab')2-stimulated human whole blood assessed as suppression of CD69 expression on B cells pretreated for 1 hr followed by goat anti-human IgM F(ab')2-stimualtion and measured after 3 hrs by Fix/Lyse reagent based flow cytometry; assay type: tissue-based
[3] = target: T1, Tyrosine-protein kinase BTK; experiment: Inhibition of BTK in human whole blood assessed as reduction in anti-human IgE antibody-stimulated histamine release pretreated for 2 hrs followed by anti-human IgE antibody-stimulation and measured after 30 mins by ELISA; assay type: tissue-based
[4] = target: Epidermal growth factor receptor (Homo sapiens, UniProt P00533)
[5] = target: T1, Tyrosine-protein kinase BTK
Description: Inhibition of full-length human His-tagged BTK expressed in baculovirus expression system using FAM-Srctide peptide as substrate preincubated for 1 hr followed by substrate addition and measured after 1 hr by TR-FRET Lanthascreen assay

[6] = target: T1, Tyrosine-protein kinase BTK; remark: listed apart in the source
Description: Reversible inhibition of full-length human His-tagged BTK expressed in baculovirus expression system assessed as apparent dissociation half life by kinase tracer 236 based TR-FRET assay

[7] = target: Proto-oncogene tyrosine-protein kinase Src (Homo sapiens, UniProt P12931); experiment: Inhibition of full-length recombinant human C-terminal His-tagged SRC cytoplasmic domain expressed in baculovirus expression system using FAM-Srctide peptide as substrate preincubated for 1 hr followed by substrate addition and measured after 1 hr by TR-FRET Lanthascreen assay
[8] = Oral bioavailability in Wistar Han rat at 1 mg/kg administered via gavage by LC-MS/MS analysis; assay type: ADME, organism-based; settings: in vivo
[9] = Permeability in RRCK cells; assay type: ADME, cell-based, Canis lupus familiaris, MDCKII-LE; settings: dog, MDCK; read-out: permeability
[10] = Clearance in human microsomes; assay type: ADME, Microsome
[11] = Cytotoxicity against human THLE cells; assay type: cell-based

Chain of Tyrosine-protein kinase BTK (Homo sapiens, UniProt Q06187, C481S) (Q06187 2-659 C481S limits assumed): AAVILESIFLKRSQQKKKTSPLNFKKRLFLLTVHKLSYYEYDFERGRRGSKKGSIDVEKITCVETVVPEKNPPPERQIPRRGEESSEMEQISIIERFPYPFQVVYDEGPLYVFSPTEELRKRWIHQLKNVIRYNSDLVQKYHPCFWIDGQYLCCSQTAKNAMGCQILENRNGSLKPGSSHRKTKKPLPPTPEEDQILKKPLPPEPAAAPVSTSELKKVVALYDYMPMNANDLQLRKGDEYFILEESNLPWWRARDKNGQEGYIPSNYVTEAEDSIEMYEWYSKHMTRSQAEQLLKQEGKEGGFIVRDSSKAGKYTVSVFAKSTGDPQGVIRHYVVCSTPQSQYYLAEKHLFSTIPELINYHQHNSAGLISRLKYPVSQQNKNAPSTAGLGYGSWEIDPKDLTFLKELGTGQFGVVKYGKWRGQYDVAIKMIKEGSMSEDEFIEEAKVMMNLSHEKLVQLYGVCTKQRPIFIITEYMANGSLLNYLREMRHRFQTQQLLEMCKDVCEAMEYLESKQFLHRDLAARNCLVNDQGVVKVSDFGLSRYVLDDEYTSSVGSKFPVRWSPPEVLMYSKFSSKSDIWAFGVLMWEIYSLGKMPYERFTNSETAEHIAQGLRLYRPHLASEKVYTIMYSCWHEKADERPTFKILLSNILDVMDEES
Chain of Proto-oncogene tyrosine-protein kinase Src (P12931 2-536 limits assumed): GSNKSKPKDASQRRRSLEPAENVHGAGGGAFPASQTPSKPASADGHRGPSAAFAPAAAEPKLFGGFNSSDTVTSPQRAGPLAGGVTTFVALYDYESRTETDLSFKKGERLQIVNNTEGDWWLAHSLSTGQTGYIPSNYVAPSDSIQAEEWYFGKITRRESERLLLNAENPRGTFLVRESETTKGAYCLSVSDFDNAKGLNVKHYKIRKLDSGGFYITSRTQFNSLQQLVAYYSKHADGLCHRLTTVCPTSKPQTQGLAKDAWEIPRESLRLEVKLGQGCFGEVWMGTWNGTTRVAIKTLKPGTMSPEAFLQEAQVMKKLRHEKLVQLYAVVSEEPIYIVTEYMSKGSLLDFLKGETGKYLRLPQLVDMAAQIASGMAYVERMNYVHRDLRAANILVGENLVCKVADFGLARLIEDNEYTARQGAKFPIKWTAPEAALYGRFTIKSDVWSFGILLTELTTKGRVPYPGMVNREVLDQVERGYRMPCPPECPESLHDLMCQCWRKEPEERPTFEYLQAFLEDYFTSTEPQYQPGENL
Chain of Epidermal growth factor receptor (P00533 whole entry): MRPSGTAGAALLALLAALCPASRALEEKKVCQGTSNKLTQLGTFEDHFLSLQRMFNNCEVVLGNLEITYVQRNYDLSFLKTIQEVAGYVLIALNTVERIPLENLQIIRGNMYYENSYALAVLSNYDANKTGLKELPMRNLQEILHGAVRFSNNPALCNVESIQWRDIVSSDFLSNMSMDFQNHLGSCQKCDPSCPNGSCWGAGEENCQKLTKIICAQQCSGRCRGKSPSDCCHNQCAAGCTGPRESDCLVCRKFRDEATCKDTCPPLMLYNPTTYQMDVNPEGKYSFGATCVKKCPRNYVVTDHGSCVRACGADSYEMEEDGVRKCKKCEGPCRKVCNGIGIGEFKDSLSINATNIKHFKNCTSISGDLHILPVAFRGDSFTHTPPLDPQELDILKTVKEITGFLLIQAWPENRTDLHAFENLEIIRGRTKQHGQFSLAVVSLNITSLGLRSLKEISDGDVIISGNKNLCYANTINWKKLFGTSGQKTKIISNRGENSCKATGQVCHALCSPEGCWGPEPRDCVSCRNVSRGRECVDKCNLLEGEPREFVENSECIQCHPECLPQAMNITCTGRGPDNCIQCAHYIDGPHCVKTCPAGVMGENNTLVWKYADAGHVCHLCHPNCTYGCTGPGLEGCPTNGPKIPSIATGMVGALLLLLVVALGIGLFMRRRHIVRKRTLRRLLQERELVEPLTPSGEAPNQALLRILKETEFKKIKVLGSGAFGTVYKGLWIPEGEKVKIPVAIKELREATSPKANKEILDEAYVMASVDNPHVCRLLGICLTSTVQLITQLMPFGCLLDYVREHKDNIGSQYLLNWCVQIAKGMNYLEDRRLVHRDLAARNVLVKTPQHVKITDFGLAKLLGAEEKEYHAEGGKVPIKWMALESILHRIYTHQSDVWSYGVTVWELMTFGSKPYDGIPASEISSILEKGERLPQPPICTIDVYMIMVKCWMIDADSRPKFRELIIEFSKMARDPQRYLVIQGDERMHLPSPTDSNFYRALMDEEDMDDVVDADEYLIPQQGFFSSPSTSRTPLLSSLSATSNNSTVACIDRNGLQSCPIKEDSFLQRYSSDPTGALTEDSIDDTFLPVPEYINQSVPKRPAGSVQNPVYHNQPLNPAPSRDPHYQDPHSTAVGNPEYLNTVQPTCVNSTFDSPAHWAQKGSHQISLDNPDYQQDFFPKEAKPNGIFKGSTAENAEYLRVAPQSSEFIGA
T1 sequence (Q06187 whole entry): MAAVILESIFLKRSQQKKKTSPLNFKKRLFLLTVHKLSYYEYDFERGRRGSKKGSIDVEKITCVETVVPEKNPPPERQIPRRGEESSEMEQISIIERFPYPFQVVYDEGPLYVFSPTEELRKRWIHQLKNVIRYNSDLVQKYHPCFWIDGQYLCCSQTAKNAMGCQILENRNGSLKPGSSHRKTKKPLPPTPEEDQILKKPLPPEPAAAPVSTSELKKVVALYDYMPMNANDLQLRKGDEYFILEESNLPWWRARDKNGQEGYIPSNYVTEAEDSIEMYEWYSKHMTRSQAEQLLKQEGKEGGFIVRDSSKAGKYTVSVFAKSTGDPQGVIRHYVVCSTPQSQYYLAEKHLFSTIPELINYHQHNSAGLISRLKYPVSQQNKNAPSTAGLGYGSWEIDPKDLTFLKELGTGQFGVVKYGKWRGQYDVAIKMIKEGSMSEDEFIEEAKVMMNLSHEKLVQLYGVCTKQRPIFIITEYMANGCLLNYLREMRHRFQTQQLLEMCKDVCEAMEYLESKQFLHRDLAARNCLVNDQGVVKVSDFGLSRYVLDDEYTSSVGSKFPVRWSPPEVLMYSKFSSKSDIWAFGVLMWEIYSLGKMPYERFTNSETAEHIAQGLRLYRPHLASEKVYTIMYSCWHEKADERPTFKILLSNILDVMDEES

Row | Compound | IC50 [1] | IC50 [2] | IC50 [3] | IC50 [4] | IC50 [5] | T1/2 [6] | IC50 [7] | bioavailability [8] | Papp [9] | microsomal CLint [10] | IC50 [11]
1 | N#CN1CCC[C@@H](n2nc(-c3ccc(Oc4ccc(Cl)cn4)cc3)c(C(N)=O)c2N)C1 | 92 nM | 45 nM | 95 nM | 15400 nM | 6.2 nM | 7 h | > 20000 nM | 76 to 93% | > 10 ×10⁻⁶ cm/s | < 8 µL/min/mg | 
2 | C=C(C)C(=O)N1CCC[C@@H](n2nc(-c3ccc(Oc4ccc(F)cc4F)cc3)c(C(N)=O)c2N)C1 | 176 nM |  |  | > 20000 nM | 247 nM |  | 3350 nM |  |  |  | 
3 | C=C(F)C(=O)N1CCC[C@@H](n2nc(-c3ccc(Oc4ccc(F)cc4F)cc3)c(C(N)=O)c2N)C1 | 170 nM |  |  | 570 nM |  | > 24 h | 6480 nM |  |  |  | 67000 nM
4 | NC(=O)c1c(-c2ccc(Oc3ccc(F)cc3F)cc2)nn([C@@H]2CCCN(C(=O)/C=C/CO)C2)c1N | 33 nM |  |  | 2910 nM |  | > 24 h | 4610 nM |  |  |  | 43000 nM
5 | N#CN1CCC[C@@H](n2nc(-c3ccc(Oc4ccc(F)cc4F)cc3)c(C(N)=O)c2N)C1 | 43 nM | 53 nM | 64 nM | 16800 nM | 1.5 nM | 6 h | 1630 nM | 76 to 93% | > 10 ×10⁻⁶ cm/s | < 8 µL/min/mg | 137000 nM
6 | N#CN1CCC[C@@H](n2nc(-c3ccc(Oc4ccccc4)cc3)c(C(N)=O)c2N)C1 | 2.8 nM |  |  | 1710 nM | 0.37 nM | 7 h | 4.2 nM |  |  |  | 
7 | CN(C)C/C=C/C(=O)N1CCC[C@@H](n2nc(-c3ccc(Oc4ccc(F)cc4F)cc3)c(C(N)=O)c2N)C1 | 65 nM |  |  | 149 nM | 3.7 nM | > 24 h | 370 nM |  |  |  | 15000 nM
8 | N#CN1CCC[C@@H](n2nc(-c3ccc(Oc4cccc(C(F)(F)F)n4)cc3)c(C(N)=O)c2N)C1 | 36 nM | 33 nM | 42 nM | > 20000 nM |  | 3 h | 14400 nM | 76 to 93% | > 10 ×10⁻⁶ cm/s | < 8 µL/min/mg | 
9 | N#CN1CCC[C@@H](n2nc(-c3ccc(Oc4ccc(Cl)cc4)cc3)c(C(N)=O)c2N)C1 | 48 nM | 46 nM | 21 nM |  |  | 6 h | 1400 nM | 76 to 93% | > 10 ×10⁻⁶ cm/s | < 8 µL/min/mg | 
10 | N#CN1CCC[C@@H](n2nc(-c3ccc(Oc4ncc(Cl)cc4F)cc3)c(C(N)=O)c2N)C1 | 230 nM | 89 nM | 50 nM | > 20000 nM |  | 5 h | > 20000 nM | 76 to 93% | > 10 ×10⁻⁶ cm/s | < 8 µL/min/mg | 
11 | C=CC(=O)N1CCC[C@@H](n2nc(-c3ccc(Oc4ccc(F)cc4F)cc3)c(C(N)=O)c2N)C1 | 17 nM |  |  | 26 nM | 0.25 nM | > 24 h | 4030 nM |  |  |  | 15000 nM
12 | C/C=C/C(=O)N1CCC[C@@H](n2nc(-c3ccc(Oc4ccc(F)cc4F)cc3)c(C(N)=O)c2N)C1 | 66 nM |  |  | > 20000 nM | 61 nM | > 24 h | 3410 nM |  |  |  | 149000 nM
13 | NC(=O)c1c(-c2ccc(Oc3ccc(F)cc3F)cc2)nn([C@@H]2CCCN(C(=O)/C=C/CF)C2)c1N | 90 nM |  |  |  | 2.7 nM | > 24 h | 3140 nM |  |  |  | 49000 nM
14 | C=CC(=O)N1CCC[C@@H](n2nc(-c3ccc(Oc4ccc(Cl)cc4)cc3)c(C(N)=O)c2N)C1 |  |  |  | 15 nM | 0.18 nM |  | 72 nM |  |  |  | 
15 | C=CC(=O)N1CCC[C@@H](n2nc(-c3ccc(Oc4ccccc4)cc3)c3c(N)ncnc32)C1 [IBRUTINIB] |  |  |  |  |  |  |  |  |  |  | 11000 nM
16 | NC(=O)c1c(-c2ccc(Oc3ccc(F)cc3F)cc2)nn([C@@H]2CCCN(C(=O)/C=C/C(F)F)C2)c1N | 115 nM |  |  |  | 0.41 nM | > 24 h | 5840 nM |  |  |  | 8000 nM
